This data set in a line: Fragrance Release Half-life (hydrolysis kinetics of pro-accord monitored by HPLC). The class given is physicochemical. The note with it: 90/10 dioxane/phosphate buffered water, buffer pH approximately 2.5, HPLC at 30° C. The procedure: For the purposes of the present invention the pro-accords generally have a "Fragrance Release Half-life" of less than or equal to 12 hours when measured in NaH2 PO4 buffer at pH 2.5 and greater than or equal to 0.1 hour when measured in NaH2 PO4 buffer at pH 5.3. The "Fragrance Release Half-life" is defined herein as follows.
The rate at which the accord is released is defined by the formula: […]
and can be further expressed by the formula: [formula] wherein k is the release rate constant and [Pro-accord] is the concentration of pro-accord. For the purposes of the present invention the "Fragrance Release Half-life", t1/2, is related to the release rate constant by the formula: [formula] and this relationship is used for the purposes of the present invention to determine the "fragrance Release Half-life" (FRHL).
Due to the hydrophobic nature of some pro-accords, it is necessary to conduct the determination of t1/2 and k in a mixture of 90/10 dioxane/phosphate buffered water. […] Next 10 mL of the phosphate buffer is admixed with 90 mL of dioxane and the pro-fragrance to be analyzed is added. The hydrolysis kinetics are then monitored by conventional HPLC at 30° C. […]
*t1/2 for the purposes of the present invention is measured in […]

With `c1ccc(CCOC(OCCc2ccccc2)(OCCc2ccccc2)OCCc2ccccc2)cc1` [tetrakis(phenylethyl) orthocarbonate, Tetrakis(phenylethyl) Orthocarbonate], the “t1/2 (Fragrance Release Half-life)” value worked out at 4.8 h. The value for `c1ccc(CCOC(OCCc2ccccc2)OCCc2ccccc2)cc1` [tris(phenylethyl) orthoformate, Tris(phenylethyl) Orthoformate] was 5.9 h.

For the origin of these results see patent US6114302A, “Fragrance pro-accords” (The Procter & Gamble Company, priority 1999, dated 2000).
